From ChEMBL document CHEMBL1137024, “Acyl-CoA: cholesterol acyltransferase inhibitory activities of fatty acid amides isolated from Mylabris phalerate Pallas” (Bioorg Med Chem Lett, 2004)
pIC50: −log10 of the molar value.

Tests used:
[1] = target: T1, Sterol O-acyltransferase 1 (Rattus norvegicus, UniProt O70536); test: Inhibitory activity against rat liver microsomal Acyl coenzyme A:cholesterol acyltransferase
T1 sequence (O70536 whole entry): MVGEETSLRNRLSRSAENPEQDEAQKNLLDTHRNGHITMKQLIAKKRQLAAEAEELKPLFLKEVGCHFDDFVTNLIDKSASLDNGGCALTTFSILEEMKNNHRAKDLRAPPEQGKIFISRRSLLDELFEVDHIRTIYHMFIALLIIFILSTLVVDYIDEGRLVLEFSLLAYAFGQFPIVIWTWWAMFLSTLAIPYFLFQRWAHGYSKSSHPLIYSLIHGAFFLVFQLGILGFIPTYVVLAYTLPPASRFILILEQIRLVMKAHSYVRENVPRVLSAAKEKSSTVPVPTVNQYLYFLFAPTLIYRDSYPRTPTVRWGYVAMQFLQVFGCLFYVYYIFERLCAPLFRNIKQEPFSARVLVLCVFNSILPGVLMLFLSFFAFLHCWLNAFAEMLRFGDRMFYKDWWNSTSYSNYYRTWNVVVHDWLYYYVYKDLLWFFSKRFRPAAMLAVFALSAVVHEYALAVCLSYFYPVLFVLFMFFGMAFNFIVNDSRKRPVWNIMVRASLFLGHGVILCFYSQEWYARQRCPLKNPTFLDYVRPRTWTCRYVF

[2] = target: Sterol O-acyltransferase 2 (Homo sapiens, UniProt O75908); test: Inhibitory activity against human Acyl coenzyme A:cholesterol acyltransferase 2
[3] = target: T2, Sterol O-acyltransferase 1 (Homo sapiens, UniProt P35610); test: Inhibitory activity against human Acyl coenzyme A:cholesterol acyltransferase 1
T2 sequence (P35610 whole entry): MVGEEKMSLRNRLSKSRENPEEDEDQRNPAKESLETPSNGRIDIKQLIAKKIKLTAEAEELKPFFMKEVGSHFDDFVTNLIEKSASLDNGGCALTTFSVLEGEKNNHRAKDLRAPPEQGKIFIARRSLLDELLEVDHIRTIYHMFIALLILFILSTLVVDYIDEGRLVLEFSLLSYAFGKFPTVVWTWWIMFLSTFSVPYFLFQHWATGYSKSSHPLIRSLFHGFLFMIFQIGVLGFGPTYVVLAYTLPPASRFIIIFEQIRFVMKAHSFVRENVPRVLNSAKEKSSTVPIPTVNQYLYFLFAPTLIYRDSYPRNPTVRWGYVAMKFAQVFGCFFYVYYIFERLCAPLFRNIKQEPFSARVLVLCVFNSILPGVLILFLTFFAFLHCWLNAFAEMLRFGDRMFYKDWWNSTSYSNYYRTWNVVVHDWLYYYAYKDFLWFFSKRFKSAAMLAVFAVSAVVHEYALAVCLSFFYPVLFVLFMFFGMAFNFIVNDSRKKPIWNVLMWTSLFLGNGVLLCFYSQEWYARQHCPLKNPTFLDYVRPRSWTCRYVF

Chain of Sterol O-acyltransferase 2 (O75908 whole entry, looked up): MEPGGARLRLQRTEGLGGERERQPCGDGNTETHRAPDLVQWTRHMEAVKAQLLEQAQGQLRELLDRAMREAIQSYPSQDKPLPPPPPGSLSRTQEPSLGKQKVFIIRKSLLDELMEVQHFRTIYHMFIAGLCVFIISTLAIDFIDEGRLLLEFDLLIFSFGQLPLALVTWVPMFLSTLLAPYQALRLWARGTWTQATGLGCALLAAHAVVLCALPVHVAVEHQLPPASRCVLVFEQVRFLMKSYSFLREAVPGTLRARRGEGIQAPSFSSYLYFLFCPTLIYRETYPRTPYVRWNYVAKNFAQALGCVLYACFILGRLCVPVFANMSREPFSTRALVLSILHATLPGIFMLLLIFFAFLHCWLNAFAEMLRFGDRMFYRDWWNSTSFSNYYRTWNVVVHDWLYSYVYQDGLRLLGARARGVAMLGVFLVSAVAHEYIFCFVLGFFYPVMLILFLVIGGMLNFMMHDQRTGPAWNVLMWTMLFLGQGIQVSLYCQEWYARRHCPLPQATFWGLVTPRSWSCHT

| Structure (SMILES) | pIC50 [1] | pIC50 [2] | pIC50 [3] |
| --- | --- | --- | --- |
| CC(=O)OC[C@@]1(C)[C@@H]2C[C@H](OC(C)=O)[C@@]3(C)Oc4cc(-c5cccnc5)oc(=O)c4[C@H](O)[C@@H]3[C@@]2(C)CC[C@@H]1OC(C)=O [PYRIPYROPENE A] | 6.77 | – | – |
| CCCCC/C=C\C/C=C\CCCCCCCC(=O)O [LINOLEIC ACID] | < 3.00 | < 3.00 | < 3.00 |
| CCCCCCCC/C=C\CCCCCCCC(=O)O [OLEIC ACID] | < 3.00 | < 3.00 | < 3.00 |
